# Laboratory results taken from patent US20240299328A1, “COMPOSITIONS COMPRISING 15-HEPE AND METHODS OF TREATING AND/OR PREVENTING HEMATOLOGIC DISORDERS AND RELATED DISEASES” (Afimmune Limited, priority 2023, published 2024).
# Legend:
# [1] = system: humanized sickle cell (SS) mice exposed to H/R stress; assay: Humanized SCD (SS) mice exposed to hypoxia/reoxygenation (H/R) stress: blood, flow cytometry, immunoblot; assay type: in vivo
# Protocol: Animals and design of the study: Experiments were performed on 4-5 months-old sex matched healthy control (Hba^tm1(HBA) Tow Hbb^tm3(HBG1, HBB) Tow) and SCD (Hba^tm1(HBA)Tow Hbb^tm2(HBG1.HBB*)Tow) mice. The study used 4-5 months-old mice. The sickle cell related organ damage is not so severe to generate confounding factors when the impact of H/R induced stress is evaluated. This is also corroborated by the observation of Kasztan M et al who show gender-related differences in kidney function of humanized SCD mice becoming significant after 24 weeks (6 months) of age. The size of the mouse groups was established based on studies with the same mouse model for SCD generated by us and other labs. Mice were randomly assigned to the different treatment groups and analysis. Healthy and SS mice were treated with ether vehicle (hydroxypropyl methyl cellulose, HPMC, 0.5%) or Epeleuton in HPMC 0.5% (1000 mg/kg/day) administrated by gavage for 6 weeks. […] When indicated, mice underwent a hypoxia/reoxygenation stress (H/R): 10 hours hypoxia (8% oxygen) followed by 3 hours reoxygenation (21% oxygen) to mimic acute vaso-occlusive crisis as previously described. Whole blood and organs were collected from each mouse under isoflurane anesthesia. Organs were immediately removed and divided into two portions which were either immediately frozen in liquid nitrogen or fixed in 10% formalin and embedded in paraffin for histology. Hematological parameters were evaluated with a Sysmex XN-1000 Hematology Analyzer and red cell morphology was evaluated as previously reported. Biochemical assays were performed using standard biochemical assays, as previously reported. Plasmatic Pentraxin 2 and CCL-2 and CXCL-2 were measured respectively using the Mouse Pentraxin 2/SAP Quantikine ELISA Kit and the next generation ELISA kit according to the manufacturer's instruction.
# Immunoblot analysis: Packed red cells were lysed in ice-cold phosphate lysis buffer (5 mM Na2HPO4, pH 8.0, containing protease inhibitor cocktail tablets, 3 mM benzamidine final concentration, 1 mM Na3VO4 final concentration) and centrifuged 10 min at 4° C. at 12,000 g. Red cell membrane (ghost) and cytosol fractions were obtained as previously reported. Frozen lung, kidney and aorta from each studied group were homogenized and lysed with iced lyses buffer (150 mM NaCl, 25 mM bicine, 0.1% SDS, 2% Triton X-100, 1 mM EDTA, protease inhibitor cocktail tablets, 1 mM Na3VO4 final concentration) then centrifuged 30 min at 4° C. at 12,000 g. Specific antibodies used are: anti Phospho-Tyrosine (clone PY99 from SCBT, Santa Cruz, CA (dilution 1:3000, 75 μg loaded) and clone 4G10 from Merck KGaA, Darmstadt, Germany (dilution 1:1600, 75 μgr loaded)); anti Phospho (Ser536) NF-kB p65 (dilution 1:1000, 75 μg loaded) and anti NF-kB p65 (clone C22B4) (dilution 1:1000, 75 μgr loaded) from Cell Signaling Technology (Danvers, MA, USA); anti-NLRP3/NALP3 from Vinci-Biochem Srl, Vinci, Italy (dilution 1:1000, 75 μgr loaded); anti Endothelin-1 (ET-1) form AbCam, Cambridge, UK (dilution 1:1000, 75 μgr loaded); anti VCAM-1 (R and D Systems, Minneapolis, MN, USA (dilution 1:1000, 40 μgr loaded)); anti ICAM-1 (clone EP1442Y, dilution 1:1000, 75 μgr loaded, AbCam, Cambridge, UK); anti TXAS-1 (Cayman, Ann Arbor, MI, USA); anti Nrf2-phospho-S40 (Clone EP1809Y, dilution 1:1000, 75 μgr loaded, AbCam, Cambridge, UK); anti-Nrf2 (dilution 1:1000, 75 μgr loaded, AbCam, Cambridge, UK); anti Nqo1 from Santa Cruz Biotechnology, Inc, CA, USA (clone C-19; dilution 1:1000, 75 μgr/μl loaded); anti-heme oxygenase 1(HO-1) form SCBT (Santa Cruz, CA, USA (dilution 1:1000, 50 μgr loaded); E-selectin (H-300) (dilution 1:1000, 75 μgr loaded); anti GAPDH from SCBT (Santa Cruz, CA, USA (dilution 1:5000, 50 μgr loaded)); anti Actin from SCBT (Santa Cruz, CA, USA (clone 2A3, dilution 1:1000, 50 μgr/loaded)). […]
# [2] = system: protein and lipid biomarkers of NAFLD patients; assay: Phase IIa NAFLD study: lipidomics and proteomics of blood samples; assay type: in vivo, human
# Description: Exploratory analysis: The exploratory analysis included analysis of lipid and metabolic parameters including total cholesterol, triglycerides, very low-density lipoprotein cholesterol (VLDL-C), low density lipoprotein cholesterol (LDL-C), high density lipoprotein cholesterol (HDL-C), non-high-density lipoprotein cholesterol (non-HDL-C), remnant-like particle cholesterol (RLP-C), fasting glucose, insulin, free fatty acids and hemoglobin A1C (HbA1C). Additional exploratory analysis included high throughput lipidomics and proteomics.
# [3] = H/R, 1000 mg/Kg/d for 6 weeks, vs vehicle
# [4] = H/R, 1000 mg/Kg/day for 6 weeks
structure (smiles),measurement,setting,value
"CC/C=C\C[C@H](O)/C=C/C=C\C/C=C\C/C=C\CCCC(=O)OCC [DS102, 15(S)-hydroxy-(5Z,8Z,11Z,13E,17Z)-eicosapentaenoic acid ethyl ester]","spleen macrophage classic inflammatory markers (CD80, CD68)","[1]; 1000 mg/Kg/day for 6 weeks, vs vehicle",significant reduction
same,"H/R induced increase in NLRP3, VCAM-1, ET-1 and TXAS-1 expression in kidney","[1]; H/R, 1000 mg/Kg/d for 6 weeks",reduction
same,NLRP3 inflammasome in lung tissue,"[1]; H/R, 1000 mg/Kg/d for 6 weeks",downregulation
same,VCAM-1 in livers,"[1]; H/R, 1000 mg/Kg/d for 6 weeks",prevented the H/R induced up-regulation
same,activation of NF-kB p65 and Nrf2 in liver,"[1]; H/R, 1000 mg/Kg/d for 6 weeks",reduced activation
same,active forms of NF-kB p65 induced by H/R in lung,"[1]; H/R, 1000 mg/Kg/d for 6 weeks",significant decrease
same,antioxidants NQO1 and HO-1 in liver,"[1]; H/R, 1000 mg/Kg/d for 6 weeks",downregulation
same,expression of NLRP3 in livers,"[1]; H/R, 1000 mg/Kg/d for 6 weeks",lower expression
same,liver protein oxidation,"[1]; H/R, 1000 mg/Kg/d for 6 weeks",marked reduction
same,ET-1 in livers,[1]; [3],trend towards reduction
same,H/R induced activation of NF-kB p65 in kidneys,[1]; [3],decreased
same,H/R induced expression of VCAM-1 in isolated aorta,[1]; [3],significant reduction
same,H/R-induced increases in creatinine and BUN plasma values,[1]; [3],reduction
same,leukocyte infiltrates in kidneys (flow cytometry),[1]; [3],significant reduction
same,H/R-induced increase in neutrophil counts,[1]; [4],significantly reduced
same,amount of sickled red blood cells,[1]; [4],decreased
same,hematocrit (Hct) and hemoglobin (Hb),[1]; [4],prevented the H/R induced reduction
same,plasma C reactive protein (CRP) and pentraxin-2,[1]; [4],decreased
same,spleen neutrophils,"[1]; H/R, 1000 mg/Kg/day for 6 weeks, vs vehicle",significant decrease
same,lactate dehydrogenase (LDH),"[1]; H/R, plasma, 1000 mg/Kg/day for 6 weeks",reduction
same,tyrosine phosphorylation state of band 3,"[1]; H/R, red cell membrane, 1000 mg/Kg/day for 6 weeks",reduction
same,clearance of damaged RBCs,"[1]; spleen macrophages, 1000 mg/Kg/day for 6 weeks, vs vehicle",trend towards reduction
same,expression of multiple circulating chemokines,[2],decreased
same,expression of multiple proteins associated with increased cardiovascular risk,[2],decreased
same,expression of multiple tumor necrosis factor receptor superfamily members,[2],decreased
same,expression of multiple vascular adhesion molecules,[2],decreased
same,TR (transferrin receptor protein 1),[2]; 1 g,significant reductions
same,"NASH drug development targets (CCR2/5 signaling, Galectin3, AOC3)",[2]; 2 g,decreased
same,levels of multiple glycerophospholipid groups,[2]; 2 g,significantly increased
same,levels of multiple hepatotoxic diglycerides,[2]; 2 g,significantly decreased
same,"inflammatory and pro-fibrotic proteins (Table 19: PAI-1, TIMP-1, DPP4, TLT2, CCL16, MCP-1, SAA4, PI3/Elafin, TR, LILRB1, TNRSF11A)","[2]; 2 g, Bonferroni and Benjamini-Hochberg testing",decreased
same,"number of markers (inflammation, fibrosis, lipid metabolism, apoptosis, chemotaxis) with significantly downregulated expression","[2]; 2 g, panel of greater than 350 protein biomarkers",over 150
